# Laboratory results published in article PMC6294363, “Structural and functional insight into serine hydroxymethyltransferase from Helicobacter pylori” (PLoS ONE, 2018).
# T1: HpSHMT (H. pylori SHMT; HP0183 gene product) (Helicobacter pylori, UniProt P56089)
# T1 construct: gene glyA; full-length, C-terminal 6xHis tag (pQE60), expressed in E. coli SG 13009; predicted monomer 46,776 Da; homodimer; purified largely as apoprotein
# T1 sequence (P56089 1-416): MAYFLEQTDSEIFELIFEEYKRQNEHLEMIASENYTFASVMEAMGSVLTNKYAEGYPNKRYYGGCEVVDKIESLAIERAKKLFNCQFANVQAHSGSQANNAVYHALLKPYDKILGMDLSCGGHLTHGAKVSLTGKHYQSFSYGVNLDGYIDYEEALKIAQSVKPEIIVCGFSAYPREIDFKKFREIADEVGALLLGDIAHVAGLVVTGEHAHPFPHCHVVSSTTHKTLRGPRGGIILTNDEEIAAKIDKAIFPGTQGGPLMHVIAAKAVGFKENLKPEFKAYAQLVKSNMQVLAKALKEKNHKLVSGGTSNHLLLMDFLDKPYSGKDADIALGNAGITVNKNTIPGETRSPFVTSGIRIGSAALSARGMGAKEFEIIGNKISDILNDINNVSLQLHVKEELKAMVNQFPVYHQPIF
# Experiments:
# [1] = biological target: T1, HpSHMT (H. pylori SHMT; HP0183 gene product); experiment: coupled alcohol dehydrogenase assay, NADH oxidation at […] nm; type: biochemical; conditions: 20 uM SHMT, 250 uM PLP, 250 uM NADH, 50 mM phosphate pH 8.0, room temperature; folate-independent retroaldol cleavage
# [2] = biological target: T1, HpSHMT (H. pylori SHMT; HP0183 gene product); experiment: absorbance at […] nm of enzyme-PLP-glycine-folate ternary complex, MTHF titration; type: binding; conditions: read-out: apparent KFol
# [3] = biological target: T1, HpSHMT (H. pylori SHMT; HP0183 gene product); experiment: absorbance at […] nm of enzyme-PLP-glycine-folate ternary complex; type: binding; conditions: fixed 5 mM glycine with 250 uM PLP and 0-2 mM MTHF, pH 8.0, room temperature
# [4] = biological target: the molecule itself; experiment: crystal structure; HpSHMT apoprotein, hanging drop vapour diffusion, 20% PEG 3350, 0.2 M sodium acetate, room temperature; space group P212121, two monomers in the asymmetric unit; 2.8 Å
molecule,measurement,setting,value
C[C@H](O)[C@H](N)C(=O)O [L-allothreonine],"coupled alcohol dehydrogenase assay, NADH oxidation at 340 nm",[1],"it is able to transform L-allothreonine to acetaldehyde, thus confirming its activity as SHMT"
Nc1nc2c(c(=O)[nH]1)N1CN(c3ccc(C(=O)N[C@@H](CCC(=O)O)C(=O)O)cc3)C[C@H]1CN2 [MTHF],Kd,[2],300 µM
NCC(=O)O [glycine],absorbance at 502 nm of enzyme-PLP-glycine-folate ternary complex,[3],corresponding to the intermediate ternary enzyme-PLP-glycine-folate complex
"Serine hydroxymethyltransferase from Helicobacter pylori 26695 (HP0183 gene product) (enzyme, Helicobacter pylori strain 26695, UniProt P56089 1-416, looked up, Serine hydroxymethyltransferase (glyA, ORF HP0183) of Helicobacter pylori strain 26695; gene amplified with primers SA36/SA37 (from the ATG to the end of the ORF) and inserted into pQE60; residues 3-416 modelled in the crystal; Homodimer by crystal structure and dynamic light scattering; Predicted mass per monomer 46,776 Da; also called HpSHMT; SHMT; source: E. coli SG 13009 (pREP4), pQE60, …) MAYFLEQTDSEIFELIFEEYKRQNEHLEMIASENYTFASVMEAMGSVLTNKYAEGYPNKRYYGGCEVVDKIESLAIERAKKLFNCQFANVQAHSGSQANNAVYHALLKPYDKILGMDLSCGGHLTHGAKVSLTGKHYQSFSYGVNLDGYIDYEEALKIAQSVKPEIIVCGFSAYPREIDFKKFREIADEVGALLLGDIAHVAGLVVTGEHAHPFPHCHVVSSTTHKTLRGPRGGIILTNDEEIAAKIDKAIFPGTQGGPLMHVIAAKAVGFKENLKPEFKAYAQLVKSNMQVLAKALKEKNHKLVSGGTSNHLLLMDFLDKPYSGKDADIALGNAGITVNKNTIPGETRSPFVTSGIRIGSAALSARGMGAKEFEIIGNKISDILNDINNVSLQLHVKEELKAMVNQFPVYHQPIF",stoichiometry N,[4],2
